Tests used:
ST486 cells = experiment: Growth inhibition of PIKfyve-mediated tumor cells by Cell Titer Glo method, ST486; format: cell-based; settings: Homo sapiens, 120 h, CellTiter-Glo, 5 days of culture, read-out: Inhibition rate % (ST486)
Experimental: (§1) IV. Determination of Growth Inhibition Rates of Compounds Against PIKfyve-Mediated Tumor Cells by Cell Titer Glo Method
(§2) 1. Cell plating: cells in logarithmic growth phase were counted and inoculated in 384-well plate.
(§3) 3. […] RLU was measured on PHERAstar Plus.

Toledo cells = experiment: Growth inhibition of PIKfyve-mediated tumor cells by Cell Titer Glo method, Toledo; format: cell-based; settings: Homo sapiens, 120 h, CellTiter-Glo, 5 days of culture, read-out: Inhibition rate % (Toledo)
Experimental: as §1, §2, §3

PIKfyve protein = PIKfyve protein (Homo sapiens (Human), UniProt Q9Y2I7); experiment: Dissociation equilibrium constant (Kd) of compound and PIKfyve protein, DiscoverX KINOMEscan; format: binding; settings: eleven 3-fold dilutions, curve fitting
PIKfyve protein, sequence (Q9Y2I7 whole entry): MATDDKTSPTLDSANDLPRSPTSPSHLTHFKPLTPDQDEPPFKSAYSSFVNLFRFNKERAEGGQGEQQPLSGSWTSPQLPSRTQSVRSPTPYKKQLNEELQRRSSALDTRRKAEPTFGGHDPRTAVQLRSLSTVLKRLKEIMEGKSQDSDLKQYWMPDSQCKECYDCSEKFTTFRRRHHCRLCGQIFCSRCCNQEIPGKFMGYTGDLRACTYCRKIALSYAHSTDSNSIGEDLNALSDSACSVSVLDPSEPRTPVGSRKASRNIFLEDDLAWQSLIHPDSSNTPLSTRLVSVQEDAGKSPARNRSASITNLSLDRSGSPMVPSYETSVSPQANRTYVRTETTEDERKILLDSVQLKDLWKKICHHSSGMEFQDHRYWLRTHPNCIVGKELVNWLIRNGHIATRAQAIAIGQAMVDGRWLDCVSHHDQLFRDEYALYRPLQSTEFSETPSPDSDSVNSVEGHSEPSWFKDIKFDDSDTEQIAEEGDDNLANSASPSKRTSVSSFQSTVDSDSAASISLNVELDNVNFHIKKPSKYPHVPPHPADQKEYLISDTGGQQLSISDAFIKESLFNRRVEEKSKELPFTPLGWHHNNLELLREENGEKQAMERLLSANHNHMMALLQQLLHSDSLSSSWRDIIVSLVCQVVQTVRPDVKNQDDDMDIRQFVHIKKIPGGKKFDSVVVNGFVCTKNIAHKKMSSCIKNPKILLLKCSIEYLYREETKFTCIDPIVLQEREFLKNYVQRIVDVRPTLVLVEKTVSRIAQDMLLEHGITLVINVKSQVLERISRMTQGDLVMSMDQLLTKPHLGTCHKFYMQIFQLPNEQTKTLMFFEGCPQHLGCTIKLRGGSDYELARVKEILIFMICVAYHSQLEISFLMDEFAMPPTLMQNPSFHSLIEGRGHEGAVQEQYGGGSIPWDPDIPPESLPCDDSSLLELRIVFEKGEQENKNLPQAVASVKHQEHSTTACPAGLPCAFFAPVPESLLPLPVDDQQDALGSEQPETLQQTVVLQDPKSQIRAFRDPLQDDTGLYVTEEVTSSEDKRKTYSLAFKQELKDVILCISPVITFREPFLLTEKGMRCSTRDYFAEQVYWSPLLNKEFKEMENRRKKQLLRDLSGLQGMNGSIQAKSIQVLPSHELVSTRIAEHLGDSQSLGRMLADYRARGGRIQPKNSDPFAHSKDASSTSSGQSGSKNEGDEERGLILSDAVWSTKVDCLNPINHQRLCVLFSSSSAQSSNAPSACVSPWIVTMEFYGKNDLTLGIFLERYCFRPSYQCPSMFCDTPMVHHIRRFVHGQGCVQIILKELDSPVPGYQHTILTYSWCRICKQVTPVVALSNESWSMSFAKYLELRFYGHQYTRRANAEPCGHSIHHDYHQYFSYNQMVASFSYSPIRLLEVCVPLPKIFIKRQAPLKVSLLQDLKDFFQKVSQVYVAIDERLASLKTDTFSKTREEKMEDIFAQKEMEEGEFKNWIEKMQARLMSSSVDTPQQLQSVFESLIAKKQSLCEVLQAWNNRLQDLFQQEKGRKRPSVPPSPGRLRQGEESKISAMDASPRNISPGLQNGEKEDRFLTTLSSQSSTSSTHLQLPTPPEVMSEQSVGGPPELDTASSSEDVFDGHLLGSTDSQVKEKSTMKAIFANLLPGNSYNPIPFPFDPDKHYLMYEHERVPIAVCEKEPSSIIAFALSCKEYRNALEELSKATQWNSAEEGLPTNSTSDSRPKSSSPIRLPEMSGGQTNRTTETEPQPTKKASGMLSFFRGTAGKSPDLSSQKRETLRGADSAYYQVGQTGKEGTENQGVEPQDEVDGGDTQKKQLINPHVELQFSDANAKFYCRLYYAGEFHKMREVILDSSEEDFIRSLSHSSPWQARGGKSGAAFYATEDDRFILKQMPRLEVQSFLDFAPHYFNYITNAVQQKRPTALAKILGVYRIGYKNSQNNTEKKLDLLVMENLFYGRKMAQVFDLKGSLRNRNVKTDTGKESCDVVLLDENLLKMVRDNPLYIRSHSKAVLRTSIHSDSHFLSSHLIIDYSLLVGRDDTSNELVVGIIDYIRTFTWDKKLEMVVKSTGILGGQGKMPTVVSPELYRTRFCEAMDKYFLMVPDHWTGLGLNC
Experimental: II. Determination of Dissociation Equilibrium Constant (Kd Value) of Compound and PIKfyve Protein
The Kd value was determined by DiscoverX's KINOMEscan™ technology according to the following steps:
1. Preparation of magnetic beads: biotin-labeled small molecule ligand and avidin-coated magnetic beads were allowed to interact at room temperature for 30 minutes, and then added with excess biotin, followed by washing with a blocking solution (1% BSA, 0.05% Tween 20, 1 mM DTT) to remove unbound ligand.
2. Binding reaction: in a 384 plate, 0.02 mL system, DNA-labeled protein, small molecule ligand-bound magnetic beads, and different concentrations of compound to be tested were mixed in a reaction solution (0.17×PBS, 0.05% Tween 20, 6 mM DTT) at room temperature with shaking for 1 hr, to which was added an eluant (1×PBS, 0.05% Tween 20) for elution. Magnetic beads were resuspended by an eluant (1×PBS, 0.05% Tween 20, 0.5 μM non-biotin-labeled small molecule ligand), and shaken at room temperature for 30 min before separating out the eluant.
3. Determination of Kd value: the content of protein in the above eluate was determined by qPCR. Eleven 3-fold dilution concentrations were determined for the compound to be tested, with 3 DMSO controls for each concentration, and the Kd value was obtained by curve fitting.

MDA-MB-231 cells = experiment: Vacuolation of MDA-MB-231 cells caused by inhibition of compounds on PIKfyve (microscopy); format: cell-based; settings: MDA-MB-231 cells; note: key: '+' represents the degree of vacuolation; ++: more '+' indicates more obvious vacuolation; +++: more '+' indicates more obvious vacuolation; ++++: more '+' indicates more obvious vacuolation; '−' represents no vacuolation
Summary of the method: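 MDA-MB-231 cells in 12-well plates at 37 °C, 5% CO2 were observed by microscopy after 24 and 48 h of culture for cytoplasmic vacuolation as a readout of PIKfyve inhibition. Scoring was semi-quantitative, from − (none) to increasing +.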

JeKo-1 cells = experiment: Tumor cell growth inhibition by MTS method, JeKo-1; format: cell-based; settings: Homo sapiens, JeKo-1, 120 h, 5 days of culture; for inhibition at 10 µM: read-out: cell growth inhibition rate of compounds at 10 μM
Experimental: III. Determination of IC50 Value of Compound for Inhibiting Tumor Cell Growth by MTS Method
1. Cell plating: cells in logarithmic growth phase were counted and inoculated in a 96-well plate (20000 cells per well).
2. Administrating agent to cell: 10 mM compound mother solution in DMSO was subjected to 3 fold-gradient dilution, to set 8 concentrations, which were then added to various wells, with three replicates for each concentration, and three blank wells (only culture medium) and three negative controls (containing 0.1% DMSO) on each plate.
3. […] The OD value at 490 nm was measured with microplate reader OD490. The cell growth inhibition rate was calculated by the following formula: Cell growth inhibition rate %=1−(ODexperimental group−ODblank group)/(ODnegative group−ODblank group)×100%
The semi-inhibitory concentration IC50 of the compound acting on cell growth was calculated using GradPad Prism 5 software according to the measured cell growth inhibition rate.
In the following table it lists the IC50 value or the inhibition rates of some compounds at 10 μM against JeKo-1 cells

SMILES	inhibition at 3.3 µM (ST486 cells)	inhibition at 3.3 µM (Toledo cells)	Kd (PIKfyve protein)	degree of vacuolation, 1 μM, 24 h (MDA-MB-231 cells)	degree of vacuolation, 1 μM, 48 h (MDA-MB-231 cells)	degree of vacuolation, 10 μM, 24 h (MDA-MB-231 cells)	degree of vacuolation, 10 μM, 48 h (MDA-MB-231 cells)	inhibition at 10 µM (JeKo-1 cells)	IC50 (JeKo-1 cells)
Cc1ccc(NC(=O)c2cc(C(F)(F)F)cc(C(F)(F)F)c2)cc1Nc1nc(-c2cccnc2)c2[nH]ccc2n1 [V-c-21]	23.8%	99.5%	910 nM						
Cc1ccc(C(=O)Nc2cccc(OC(F)(F)F)c2)cc1Nc1nc(-c2cccnc2)c2[nH]ccc2n1 [V-c-8]	51%	96.3%	13 nM	+++	+++	+++	+++	39%	
Cc1ccc(NC(=O)c2cccc(C(F)(F)F)c2)cc1Nc1nc(-c2ccncc2)c2[nH]ccc2n1 [V-c-39]	9.57%	49.1%	> 30000 nM						
Cc1ccc(C(=O)Nc2cccc(C(F)(F)F)c2)cc1Nc1nc(-c2ccncc2)c2[nH]ccc2n1 [V-c-38]	30%	53.3%	> 30000 nM						
Cc1ccc(NC(=O)c2cccc(C(F)(F)F)c2)cc1Nc1nc(-c2cccnc2)c2c(ccn2C)n1 [V-c-40]	57.1%	98.8%	380 nM	+	+++	+	+++		
Cc1cn(-c2cc(NC(=O)c3ccc(C)c(Nc4nc(-c5cccnc5)c5[nH]ccc5n4)c3)cc(C(F)(F)F)c2)cn1 [V-c-10]	93%	94.8%	3500 nM	−	−	++	++		
Cc1ccc(NC(=O)c2ccc(C(F)(F)F)cc2)cc1Nc1nc(-c2cccnc2)c2[nH]ccc2n1 [V-c-23]	27.2%	94.9%	33 nM	++	−	++	−	15.8%	
Cc1ccc(C(=O)Nc2cc(C(F)(F)F)ccc2Cl)cc1Nc1nc(-c2cccnc2)c2[nH]ccc2n1 [V-c-14]	52.2%	99.6%	20 nM	++	−	++	++	46.6%	
O=C(Nc1cccc(C(F)(F)F)c1)c1cccc(Nc2nc(-c3cccnc3)c3[nH]ccc3n2)c1 [V-c-4]	76.2%	99.5%	33 nM	++	++	+++	+++		5940 nM
Cc1ccc(C(=O)Nc2cc(C(F)(F)F)cc(C(F)(F)F)c2)cc1Nc1nc(-c2cccnc2)c2[nH]ccc2n1 [V-c-9]	37.7%	19.3%	29 nM						
Cc1ccc(C(=O)Nc2ccc(CN3CCN(C)CC3)c(C(F)(F)F)c2)cc1Nc1nc(-c2cccnc2)c2[nH]ccc2n1 [V-c-11]	96.2%	95.3%	700 nM	−	−	−	−		
